Tests used:
[1] = test system: MUTU-1 Burkitt lymphoma cell line (EBV+); details: 24 h
[2] = test system: MUTU-1 Burkitt lymphoma cell line (EBV+); assay: cells; details: Mutu-1, 24 h; for viability at 10 µM: read-out: MUTU-1 Cell Viability % 10 μM, 10 μM, 24 h; for viability at 1 µM: read-out: MUTU-1 Cell Viability % 1 μM, 1 μM, 24 h; for IC50: read-out: IC50 MUTU-I 24 h
[3] = test system: DG-75 Burkitt lymphoma cell line (EBV−, chemoresistant); assay: cells; details: Homo sapiens, DG-75, 48 h; for viability at 1 µM: read-out: DG-75 Cell Viability % 1 μM, 1 μM, 48 h; for viability at 10 µM: read-out: DG-75 Cell Viability % 10 μM, 10 μM, 48 h

| Compound | melting point [°C] | MUTU-1 Cell Viability % 1 μM [1] [%] | viability at 10 µM [2] [%] | viability at 1 µM [3] [%] | viability at 10 µM [3] [%] | cell viability in MUTU-I cell line (1 and 10 μM together or concentration not stated) [1] | viability at 1 µM [2] [%] | IC50 [2] [nM] | MUTU-1 Cell Viability % 10 μM ([1]; 10 μM) [%] |
| --- | --- | --- | --- | --- | --- | --- | --- | --- | --- |
| O=C1C2C3c4ccccc4C(/C=C/[N+](=O)[O-])(c4ccccc43)C2C(=O)N1CO (stereo not shown) [Compound 13n, (E)-13-(Hydroxymethyl)-9-(2-nitrovinyl)-9,10-dihydro-9,10-[3,4]epipyrroloanthracene-12,14-dione] | 230 to 232 | 0 | 1.8 | 74.6 | 20.4 |  |  |  |  |
| OCC12c3ccccc3C(c3ccccc31)c1ccccc12 [Compound 20g] |  |  | 103 | 97 | 68.7 | inactive | 101 |  |  |
| CN1C(=O)C2C3c4ccccc4C(/C=C/[N+](=O)[O-])(c4ccccc43)C2C1=O (stereo not shown) [Compound 13m, (E)-13-Methyl-9-(2-nitrovinyl)-9,10-dihydro-9,10-[3,4]epipyrroloanthracene-12,14-dione] | 267 to 268 | 0 | 7.4 | 38.1 | 0.93 |  |  | 320 |  |
| O=[N+]([O-])C=CC12c3ccccc3C(Cl)(c3ccccc31)c1ccccc12 [Compound 20d, (E)-9-Chloro-10-(2-nitrovinyl)-9,10-dihydro-9,10-[1,2]benzenoanthracene] | 259 to 261 |  | 0.34 | 46 | 0 | < 6% | 0.95 | 280 |  |
| O=CC12c3ccccc3C(c3ccccc31)c1ccccc12 [Compound 20f] |  |  | < 5 | 72.9 | 81.7 |  | 97.9 |  | 5.4 |
| O=[N+]([O-])/C=C/C12c3ccccc3C(c3ccccc31)c1ccccc12 [Compound 20a, (E)-9-(2-nitrovinyl)-9,10-dihydro-9,10-[1,2]benzenoanthracene] |  |  | 1.3 | 90.2 | 0.091 | < 6% | 6 |  |  |
| O=C1C2C3c4ccccc4C(/C=C/[N+](=O)[O-])(c4ccccc43)C2C(=O)N1c1ccc(Br)cc1 (stereo not shown) [Compound 16g, (E)-13-(4-Bromophenyl)-9-(2-nitrovinyl)-9,10-dihydro-9,10-[3,4]epipyrroloanthracene-12,14-dione] | 267 to 268 |  | 1.1 | 28.2 | 0.55 |  | 2.1 | 220 |  |
| CCOC(=O)C1C2c3ccccc3C(/C=C/[N+](=O)[O-])(c3ccccc32)C1C(=O)OCC (stereo not shown) [Compound 19f, Diethyl (E)-9-(2-nitrovinyl)-9,10-dihydro-9,10-ethanoanthracene-11,12-dicarboxylate] | 151 to 152 |  | 13.8 | 13.9 | 13.8 |  | 13.6 | 550 |  |
| CC/C(=C\C12c3ccccc3C(c3ccccc31)C1C(=O)NC(=O)C12)[N+](=O)[O-] (stereo not shown) [Compound 13i, (E)-9-(2-Nitrobut-1-en-1-yl)-9,10-dihydro-9,10-[3,4]epipyrroloanthracene-12,14-dione] | 296 to 298 |  | 73 | 96.3 | 89.4 |  | 91.1 |  |  |
| COc1cc(OC)cc(N2C(=O)C3C4c5ccccc5C(/C=C/[N+](=O)[O-])(c5ccccc54)C3C2=O)c1 (stereo not shown) [Compound 16j, (E)-13-(3,5-Dimethoxyphenyl)-9-(2-nitrovinyl)-9,10-dihydro-9,10-[3,4]epipyrroloanthracene-12,14-dione] | 268 to 271 |  | 5.4 | 33.5 | 0.16 |  | 4.2 | 260 |  |
| C/C(=C\C12c3ccccc3C(Cl)(c3ccccc31)C1C(=O)N(c3ccccc3)C(=O)C12)[N+](=O)[O-] (stereo not shown) [Compound 17g, (E)-9-Chloro-10-(2-nitroprop-1-en-1-yl)-13-phenyl-9,10-dihydro-9,10-[3,4]epipyrroloanthracene-12,14-dione] | 268 to 271 |  | 78.5 | 85.3 | 84.3 |  | 88 |  |  |
| CC(=O)OC1(C#N)CC2c3ccccc3C1(/C=C/[N+](=O)[O-])c1ccccc12 (stereo not shown) [Compound 19d, (E)-11-Cyano-10-(2-nitrovinyl)-9,10-dihydro-9,10-ethanoanthracen-11-yl acetate] | 168 to 170 |  | 0.69 | 99.4 | 1 |  | 48.9 |  |  |
| CC/C(=C\C12c3ccccc3C(c3ccccc31)C1C(=O)N(c3ccc(Cl)cc3)C(=O)C12)[N+](=O)[O-] (stereo not shown) [Compound 17d, (E)-13-(4-Chlorophenyl)-9-(2-nitrobut-1-en-1-yl)-9,10-dihydro-9,10-[3,4]epipyrroloanthracene-12,14-dione] | 275 to 279 |  | 99.9 | 96.6 | 78.4 |  | 102 |  |  |
| O=[N+]([O-])CCC12c3ccccc3C(c3ccccc31)c1ccccc12 [Compound 20e, 9-(2-Nitroethyl)-9,10-dihydro-9,10-[1,2]benzenoanthracene] | 185 to 187 |  | 111 | 97.6 | 97.2 |  | 98.9 |  |  |
| O=C1OC(=O)C2C1C1(Cl)c3ccccc3C2(/C=C/[N+](=O)[O-])c2ccccc21 (stereo not shown) [Compound 13d, (E)-9-Chloro-10-(2-nitrovinyl)-9,10-dihydro-9,10-[3,4]furanoanthracene-12,14-dione] | 275 to 277 |  | 43.5 | 98.7 | 102 |  | 35.6 |  |  |
| O=C1C2C3c4ccccc4C(/C=C/[N+](=O)[O-])(c4ccccc43)C2C(=O)N1c1ccccc1O (stereo not shown) [Compound 16l, (E)-13-(2-Hydroxyphenyl)-9-(2-nitrovinyl)-9,10-dihydro-9,10-[3,4]epipyrroloanthracene-12,14-dione] | 203 to 206 |  | 0.61 | 59.2 | 0 |  | 2.3 |  |  |
| CC/C(=C\C12c3ccccc3C(c3ccccc31)C1C(=O)OC(=O)C12)[N+](=O)[O-] (stereo not shown) [Compound 13c, (E)-9-(2-Nitrobut-1-en-1-yl)-9,10-dihydro-9,10-[3,4]furanoanthracene-12,14-dione] | 230 to 233 |  | 74.1 | 68 | 80.7 |  | 64.1 |  |  |
| CC(=CC12c3ccccc3C(c3ccccc31)c1ccccc12)[N+](=O)[O-] [Compound 20b, (E)-9-(2-Nitroprop-1-en-1-yl)-9,10-dihydro-9,10-[1,2]benzenoanthracene] | 226 to 228 |  | 102 | 86.4 | 100 |  | 95.2 |  |  |
| O=C1C2C3c4ccccc4C(/C=C/[N+](=O)[O-])(c4ccccc43)C2C(=O)N1Cc1ccccc1 (stereo not shown) [Compound 17i, (E)-13-Benzyl-9-(2-nitrovinyl)-9,10-dihydro-9,10-[3,4]epipyrroloanthracene-12,14-dione] | 232 to 236 |  | 0.86 | 93.1 | 0.67 |  | 74.9 |  |  |
| O=c1n(-c2ccccc2)c(=O)n2n1C1c3ccccc3C2(/C=C/[N+](=O)[O-])c2ccccc21 [Compound 18, (E)-9-(2-Nitrovinyl)-14-phenyl-9,10-dihydro-9,10-[1,2]epitriazoloanthracene-13,15-dione] | 168 to 169 |  | 13.2 | 87.3 | 13.2 |  | 75 |  |  |
| N/N=C/C12c3ccccc3C(c3ccccc31)C1C(=O)NC(=O)C12 (stereo not shown) [Compound 23g, (E)-9-(Hydrazonomethyl)-9,10-dihydro-9,10-[3,4]epipyrroloanthracene-12,14-dione] | 245 to 247 |  | 101 | 78.1 | 55 |  | 95.2 |  |  |
| C/C(=C\C12c3ccccc3C(Cl)(c3ccccc31)C1C(=O)OC(=O)C12)[N+](=O)[O-] (stereo not shown) [Compound 13e, (E)-9-Chloro-10-(2-nitroprop-1-en-1-yl)-9,10-dihydro-9,10-[3,4]furanoanthracene-12,14-dione] | 270 to 272 |  | 101 | 78.2 | 98.2 |  | 83.3 |  |  |
| N#CC(C#N)=CC12c3ccccc3C(c3ccccc31)C1C(=O)N(c3ccccc3)C(=O)C12 (stereo not shown) [Compound 23f, 2-((12,14-Dioxo-13-phenyl-9,10-[3,4]epipyrroloanthracen-9(10H)-yl)methylene)malononitrile] | 255 to 258 |  | 71.8 | 82 | 81.6 |  | 78.9 |  |  |
| CC(=O)Oc1cccc(N2C(=O)C3C4c5ccccc5C(/C=C/[N+](=O)[O-])(c5ccccc54)C3C2=O)c1 (stereo not shown) [Compound 16m, (E)-3-(9-(2-Nitrovinyl)-12,14-dioxo-9,10-dihydro-9,10-[3,4]epipyrroloanthracen-13-yl)phenyl acetate] | 246 to 248 |  | 1.2 | 35.9 | 0 |  | 2 | 230 |  |

From paper PMC7168933, “Design, Synthesis and Biochemical Evaluation of Novel Ethanoanthracenes and Related Compounds to Target Burkitt’s Lymphoma” (Pharmaceuticals, 2020)
